These results are taken from patent US6908884B2, “Benzazolonylcarbonylcyclohexenones and their use as herbicides” (BASF Aktiengesellschaft, priority 2000, dated 2005).

One data set deals with AMARE. The data set is described as follows: greenhouse post-emergence herbicidal test. The class given is in vivo, redroot pigweed. The conditions noted are these: 125 or 250 g/ha (a.s.). From the text: (§1) The seeds of the test plants were sown separately for each species. For the post-emergence treatment, the test plants were first grown to a plant height of from 3 to 15 cm, depending on the plant habit, and only then treated with the active compounds which had been suspended or emulsified in water. To this end, the test plants were either sown directly and grown in the same containers, or they were first grown separately as seedlings and transplanted into the test containers a few days prior to treatment. The rate of application for the post-emergence treatment was 250, 125, 62.5, 31.3 and/or 15.6 g/ha of active substance (a.s.). Depending on the species, the plants were kept at from 10 to 25° C., or 20-35° C., respectively. The test period extended over 2 to 4 weeks. During this time, the plants were tended, and their response to the individual treatments was evaluated. Evaluation was carried out using a scale of from 0 to 100. 100 means no emergence of the plants, or complete destruction of at least the aerial parts, and 0 means no damage, or normal course of growth. A damage of at least 95% corresponds to very good herbicidal action. The plants used in the greenhouse experiments were of the following species: [table]

In a further data set the test system is SINAL. The data set is described as follows: greenhouse post-emergence herbicidal test. The data set is classed as in vivo, white mustard. The following applies: 125 or 62.5 g/ha (a.s.).
From the text: as §1

A further data set deals with MATIN. The data set is described as follows: greenhouse post-emergence herbicidal test. The data set is classed as in vivo, chamomile, false. The conditions noted are these: 125 or 62.5 g/ha (a.s.).
From the text: as §1

For a further data set, the system named is LAMAM. The data set is described as follows: greenhouse post-emergence herbicidal test. The class given is in vivo, henbit. The following applies: 125 or 62.5 g/ha (a.s.).
From the text: as §1

For the next data set, the system named is ABUTH. The data set is described as follows: greenhouse post-emergence herbicidal test. The data set is classed as in vivo, velvet leaf. The conditions noted are these: 125 or 250 g/ha (a.s.).
From the text: as §1

The next data set deals with PHBPU. The data set is described as follows: greenhouse post-emergence herbicidal test. The class given is in vivo, morning glory, common.
From the text: as §1, with “The rate of application for the post-emergence treatment was 250, 125, 62.5, 31.3 and/or 15.6 g/ha of active substance (a.s.).” left out

In a further data set the test system is SETFA. The data set is described as follows: greenhouse post-emergence herbicidal test. The data set is classed as in vivo, giant foxtail. The following applies: 125 or 250 g/ha (a.s.).
From the text: as §1

The subject of a further data set is CHEAL. The data set is described as follows: greenhouse post-emergence herbicidal test. The data set is classed as in vivo, lambs' quarters (goose-foot).
From the text: as §1, with “The rate of application for the post-emergence treatment was 250, 125, 62.5, 31.3 and/or 15.6 g/ha of active substance (a.s.).” left out

Another data set has as its system ECHCG. The data set is described as follows: greenhouse post-emergence herbicidal test. The data set is classed as in vivo, barnyard grass.
From the text: as §1, with “The rate of application for the post-emergence treatment was 250, 125, 62.5, 31.3 and/or 15.6 g/ha of active substance (a.s.).” left out

In another data set the test system is POLPE. The data set is described as follows: greenhouse post-emergence herbicidal test. The data set is classed as in vivo, lady's thumb. The following applies: 31.3 g/ha (a.s.), read-out: herbicidal action against POLPE.
From the text: as §1

The subject of another data set is BRAPL. The data set is described as follows: greenhouse post-emergence herbicidal test. The data set is classed as in vivo, marmalade grass. The conditions noted are these: 125 or 250 g/ha (a.s.).
From the text: as §1

On to `CCCCn1c(=O)oc2ccc(C(=O)C3=C(O)CCCC3=O)c(C)c21` [Compound I-1a.6], for which the “herbicidal action against AMARE” value with AMARE was “very good herbicidal action (A damage of at least 95% corresponds to very good herbicidal action)”.
For the compound `C=CCn1c(=O)oc2ccc(C(=O)C3=C(O)CCCC3=O)c(C)c21` [Compound I-1a.29], in the data set on AMARE, the “herbicidal action against AMARE” value is reported as “very good herbicidal action (A damage of at least 95% corresponds to very good herbicidal action)”.
Regarding `Cc1c(C(=O)C2=C(O)CCCC2=O)ccc2sc(=O)n(C)c12` [Compound I-1a.1129, 3,4-dimethyl-5-(1′,3′-cyclohexanedion-2′-yl)carbonylbenzothiazol-2-one], in the data set with SINAL, the “herbicidal action against SINAL” value is given as “very good herbicidal action (A damage of at least 95% corresponds to very good herbicidal action)”. In addition, the “herbicidal action against MATIN” value in the data set with MATIN was “very good herbicidal action (A damage of at least 95% corresponds to very good herbicidal action)”. Further, the “herbicidal action against LAMAM” value with LAMAM is on record as “very good herbicidal action (A damage of at least 95% corresponds to very good herbicidal action)”.
Take `CCn1c(=O)sc2ccc(C(=O)C3=C(O)CCCC3=O)c(C)c21` [Compound I-1a.1131]: the “herbicidal action against ABUTH” value in the data set on ABUTH is reported as “very good herbicidal action (A damage of at least 95% corresponds to very good herbicidal action)”.
For `Cc1c(C(=O)C2=C(O)CC(C)(C)CC2=O)ccc2sc(=O)n(C)c12` [Compound I-1c.1129, 3,4-dimethyl-5-(5′,5′-dimethyl-1′,3′-cyclohexanedion-2′-yl)-carbonylbenzothiazol-2-one], the “herbicidal action against PHBPU” value in the data set with PHBPU (125 or 62.5 g/ha (a.s.)) is listed as “very good herbicidal action (A damage of at least 95% corresponds to very good herbicidal action)”.
Turning to `CCn1c(=O)sc2ccc(C(=O)C3=C(O)CC(C)(C)CC3=O)c(C)c21` [Compound I-1c.1131], the “herbicidal action against SETFA” value in the data set with SETFA was “very good herbicidal action (A damage of at least 95% corresponds to very good herbicidal action)”.
Turning to `Cc1c(C(=O)C2=C(O)C(C)(C)C(=O)C(C)(C)C2=O)ccc2sc(=O)n(C)c12` [Compound I-1d.1129, 3,4-dimethyl-5-(4′,4′,6′,6′-tetramethyl-1′,3′,5′-cyclohexane-trion-2′-yl)-carbonylbenzothiazol-2-one], the “herbicidal action against CHEAL” value with CHEAL (16.5 g/ha of a.s.) is recorded as “good to very good herbicidal action”. The pest or weed control at 31.3 g/ha in the data set with CHEAL (Chenopodium album, 31.3 g/ha (a.s.), read-out: herbicidal action against CHEAL) was at least 95%; in the data set on POLPE, at least 95%. In addition, the “herbicidal action against ECHCG” value with ECHCG (16.5 g/ha of a.s.) and in the data set on ECHCG (31.3 g/ha (a.s.)) was “good to very good herbicidal action” throughout. Further, the “herbicidal action against PHBPU” value in the data set on PHBPU (16.5 g/ha of a.s.) and with PHBPU (31.3 g/ha (a.s.)) was “very good herbicidal action (A damage of at least 95% corresponds to very good herbicidal action)” throughout.
Take `CCn1c(=O)sc2ccc(C(=O)C3=C(O)C(C)(C)C(=O)C(C)(C)C3=O)c(C)c21` [Compound I-1d.1131]: the “herbicidal action against ABUTH” value with ABUTH is recorded as “very good herbicidal action (A damage of at least 95% corresponds to very good herbicidal action)”. In addition, the “herbicidal action against SETFA” value with SETFA is “very good herbicidal action (A damage of at least 95% corresponds to very good herbicidal action)”. Besides, the “herbicidal action against AMARE” value with AMARE is given as “very good herbicidal action (A damage of at least 95% corresponds to very good herbicidal action)”.
On to `CCCCn1c(=O)sc2ccc(C(=O)C3=C(O)C(C)(C)C(=O)C(C)(C)C3=O)c(C)c21` [Compound I-1d.1134], for which the “herbicidal action against ABUTH” value in the data set with ABUTH was “very good herbicidal action (A damage of at least 95% corresponds to very good herbicidal action)”. The “herbicidal action against AMARE” value in the data set on AMARE is listed as “very good herbicidal action (A damage of at least 95% corresponds to very good herbicidal action)”.
Regarding `CCn1c(=O)sc2ccc(C(=O)C3=C(O)C4CCC(C4)C3=O)c(C)c21` (centres unmarked) [Compound I-1x.1131], the “herbicidal action against SETFA” value with SETFA is reported as “very good herbicidal action (A damage of at least 95% corresponds to very good herbicidal action)”. For the same compound, in the data set on BRAPL, the “herbicidal action against BRAPL” value is “very good herbicidal action (A damage of at least 95% corresponds to very good herbicidal action)”.
With `CCCCn1c(=O)sc2ccc(C(=O)C3=C(O)C4CCC(C4)C3=O)c(C)c21` (centres unmarked) [Compound I-1x.1134], the “herbicidal action against ABUTH” value in the data set on ABUTH was “very good herbicidal action (A damage of at least 95% corresponds to very good herbicidal action)”. Also, the “herbicidal action against SETFA” value in the data set with SETFA is “very good herbicidal action (A damage of at least 95% corresponds to very good herbicidal action)”.
`Cc1c(C(=O)C2=C(O)C3CCC(C3)C2=O)ccc2sc(=O)n(C)c12` (centres unmarked) [Example 4] had a melting point of 101 to 110 °C.
The compound `C=CCn1c(=O)sc2ccc(C(=O)C3=C(O)CC(C)(C)CC3=O)c(C)c21` [Example 5] had a melting point of 143 to 150 °C.
In turn, `Cc1c(C(=O)C2=C(O)CCCC2=O)ccc2oc(=O)n(C)c12` [Example 6] registered a melting point of 207 to 209 °C.
Still for that read-out and setting: the result for `Cc1c(C(=O)C2=C(O)CC(C)(C)CC2=O)ccc2oc(=O)n(C)c12` [Example 7] reads 139 to 143 °C.
On the same count and under the same terms, in the case of `CCCCn1c(=O)oc2ccc(C(=O)C3=C(O)CC(C)(C)CC3=O)c(C)c21` [Example 10] it was 115 to 116 °C; in that of `CCn1c(=O)sc2ccc(C(=O)C3=C(n4cccn4)CC(C)(C)CC3=O)c(C)c21` [Example 21], 150 to 151 °C.
Take `CCCn1c(=O)sc2ccc(C(=O)C3=C(O)CC(C)(C)CC3=O)c(C)c21` [Example 25]: the melting point lay within 129 to 135 °C.
`CCCn1c(=O)oc2ccc(C(=O)C3=C(O)CC(C)(C)CC3=O)c(C)c21` [Example 29] yielded a melting point of 189 to 193 °C.
The compound `Cc1c(C(=O)C2=C(O)CC(C)(C)CC2=O)ccc2sc(=O)n(Cc3ccccc3)c12` [Example 32] yielded a melting point of 161 to 166 °C.
Compound `CC#CCn1c(=O)sc2ccc(C(=O)C3=C(O)CC(C)(C)CC3=O)c(C)c21` [Example 33] had a melting point of 147 to 149 °C.
On the same count and under the same terms, the result for `C=CCCn1c(=O)sc2ccc(C(=O)C3=C(O)C4CCC(C4)C3=O)c(C)c21` (centres unmarked) [Example 40] reads 129 to 132 °C.
